Tests used:
[1] = for comparison; cited from earlier work
[2] = system: metabolism of nitrogen oxide; experiment: Morphine abstinence model: nitrites and nitrates NOX− in blood plasma, liver and brain; type: in vivo, rats Wistar
Method: (§1) The experiments were carried out on rats in series of 7 animals on each compound according to the invention. Non-morphinized animal with not administered with compounds according to the invention were used as a control group. […] Then the rats were decapitated, the blood from somnolent arteries was collected in test tubes with solution EDTA as an anticoagulant, centrifuged at 1500 g for 15 minutes at 4° C.
To estimate the intensity of metabolism of nitrogen oxide in rats, quantitative determination of stable metabolites of nitrogen oxide—nitrites and nitrates NOX^− in the blood plasma, supernatanates of the liver and thymus gland, a study was conducted by a spectrometric method, and in the brain supernatanates by a […] method.
The spectrometric method is based the reaction of nitrites with the Griss reagent (a mixture of 2% solution of sulfanilamide and 0.2% N-(1-naphthyl)ethylene diamine. At the first step the nitrite reacts with sulfanilamide with formation of diazonium salt, and then with the second component to form azo dye with an adsorption maximum at 540 nm. For reduction of nitrates into nitrites, a fermentative method was used with bacterial reductase nitrate (Grisham M. B. et al., 1995). The samples of plasma and supernatant of the liver deproteinizated at 100° C. for 5 minutes incubated for 30 minutes at 37° C. in 50.0 mM of HEPES pH 7.4 in the presence of 0.2 unit/ml of Aspergillus reductase nitrate, 5.0 mkM of FAD and 0.1 mM of NAD-Ph. At the end of the reaction lactate dehydrogenase and pyruvate were added for isolation of NAD-Ph interfering with the Griss reaction. Then the Griss reagent was added and after 10-minute incubation the light absorption of the samples was measured at 540 nm. To amount of NOX^− was calculated using sodium nitrate as a standard.
The fluorometric method is based on calculation of the nitrite level by the intensity fluorescence of 2,3-diaminonaphthotriazole, a product of reaction of 2,3-diaminonaphthalene (DAN) and nitrite in an acidic medium (Misko T. R., Schilling R. J., Salvemini D. et al. “A fluorometric assay for the measurement of nitrite of biological samples”. Anal. Biochem., 1993, v. 214, p. 11-16). The brain supernatants deproteinizated at 100° C. were placed in a nitrite regenerating system containing 0.125 unit/ml of nitrate reductases, 25 mkM NADPh and 25 mkM FAD prepared in a 20-mM Tris-HCl buffer with pH 7.6 and incubated for 30 minutes at 37° C. The lactatedehydrogenase/pyruvate system was used for oxidation of the NADPh. Then 316 mkM of the DAN solution in 0.62 M of hydrochloric acids were added and the mixture was incubated for 10 minutes in darkness.
280 mM of NaOH were added for stabilization of the fluorescence of the formed 2,3-diaminonaphthotriazole. The fluorescence intensity was measured in the spectrofluorimeter Hitachi F-3000 at a wavelength of excitation of 365 nm and an emission of 405 nm. The concentration of NOX^− in the brain was calculated by means of a standard solution of sodium nitrate.

[3] = system: indicator enzymes in blood plasma; experiment: Morphine abstinence model: indicator enzymes AST, ALT, γ-GTP in blood plasma; type: in vivo, rats Wistar
Method: as §1
To estimate possible hepatoprotective action of the compounds according to the invention under conditions of development of an oxidizing stress in the liver cells, effect of these compounds on the most important biochemical blood indexes, in particular, on the content in blood plasma of indicator enzyme of aspartateaminotransferase (AST), alanineaminotransferase (ALT), γ-glutamiletranspeptidase (γ-GTP) was investigated. The content of enzymes was estimated by their catalyzing activity in blood plasma.
The activity of AST, ALT and γ-GTP was determined by means of diagnostic sets DiaSys, Germany.

thymus [4] = experiment: Morphine abstinence model: thymus condition; type: in vivo, rats; settings: morphinized rats then compound
Method: The effect of the compounds according to the invention on the condition of the thymus of the rats was also investigated: a control group, an experimental group of morphinized animals and an experimental group of animals were first morphinized and then injected with the compounds according to the invention. The experiment was carried out similarly to that described above.

[5] = system: adenosine-sensitive receptors of thrombocytes; experiment: ADP-induced aggregation of thrombocytes in vitro (Born method); type: cell-based, rabbit; settings: 3 min incubation, ADP 10^−5 M
Method: The compounds according to the invention were studied for the effect of aggregation of thrombocytes induced by a preliminary introduction of a solution of an aggregation inductor with a competing introduction of the compounds according to the invention.
The aggregation of thrombocytes was studied by the Born method based on determination of the changes in the optical density of plasma enriched with thrombocytes after its incubation with an aggregation inductor.
Adenozinediphosphoric acid (ADP) was selected as an aggregation inductor, which in fact is an aggregation generator. Use was made of a sample (registration number 885) of the Sigma Diagnostics Company (USA) in final concentration of 10^−5 M.
The experiments were carried out on male rabbits of the “Chinchilla” breed having a mass of 2.7±0.3 kg. 18-24 hours prior to the experiment they were deprived of feed while preserving free access to water.
To obtain plasma enriched with thrombocytes, blood was taken from a cut of a marginal vein of the rabbit ear, the sample was stabilized with 3.8% of sodium citrate solution in a ratio of 9:1 and centrifuged at 200 g (1000 rev/min) for 10 minutes. The top supernatant layer enriched with thrombocytes was transferred by an automatic dropper into a silicone test tube and kept at 37° C. The plasma enriched with thrombocytes contained, on the average, […]. If this content exceeded the specified 3×10^8 blood platelets in 1 liter, this sample was diluted to the necessary concentration with plasma deprived of thrombocytes, which was obtained by centrifuging blood at 650 g during 10 minutes.
The measurements of the optical density of the samples were made on two-channel aggregometer of the “Chronolog” Company (USA). A flask containing 490 mkl of plasma rich with thrombocytes was placed in a device, into which a magnetic agitator covered with Teflon was lowered. The index of maximum amplitude of aggregation (MA) in percent of a fall of the plasma optical density under effect of the aggregation inductor was recorded. The control index MA of plasma was compared with the MA of plasma incubated for 3 minutes with different concentrations of the compounds: from 10^−3 to 10^−7 in vitro experiments or with plasma obtained 15, 30, 60 and 120 minutes after intravenous administration of different doses of the compounds in vivo experiments.
The process of aggregation of thrombocytes was recorded with the help of a computer; on the monitor screen the there were depicted curves reflecting changes of the optical density of the plasma enriched which was taken as a standard 100% compared to the optical density of the non-thrombocyte plasma taken for 0% content of thrombocytes.
Under in vitro conditions a flask was filled with blood plasma enriched with thrombocytes, to which an aggregation inductor ADP was added at a concentration of 10^−5 M, incubated for 3 minutes, and then the compounds according to the invention were introduced directly into the flask. Their action by aggregation of thrombocytes was studied after 3-minute incubation in a wide range of concentrations from 10^−3 to 10^−7 M to minimum concentration of 10^−7 M not inducing no effect of suppressing the aggregation.

[6] = system: synthase of nitrogen oxide (NOC); experiment: Morphine abstinence model: activity of synthase of nitrogen oxide (radiometric, [3H]L-citrulline); type: in vivo, rats Wistar
thymus [7] = experiment: Morphine abstinence model: thymus condition; type: in vivo, rats; settings: compound alone
[8] = compound alone 20.0 mg/kg intramuscularly
[9] = morphinized rats then compound 20.0 mg/kg intramuscularly

## NC(=O)c1ccc[n+]([C@@H]2O[C@H](COP(=O)([O-])OP(=O)(O)OC[C@H]3O[C@@H](n4cnc5c(N)ncnc54)[C@H](O)[C@@H]3O)[C@@H](O)[C@H]2O)c1 [NAD^+]
[1]
  E1/2 of electrochemical reduction of coenzyme: −0.32 V

## O=c1[nH][nH]c(=O)c2ncccc12.[Li] [Compound 6, lithium salt of pyrido[2,3-d]-6H-pyridazine-5,8-dione]
[2]; [8]
  Nitrites in blood plasma, Control + Compound: 15.83 ± 1.21 mkmol/ml
  Nitrites in brain, Cortex of cerebrum, Control + Compound: 4.59 ± 0.44 nmol/mg of protein
  Nitrites in brain, Hypothalamus, Control + Compound: 6.94 ± 0.67 nmol/mg of protein
  Nitrites in brain, Mesencephalon, Control + Compound: 7.01 ± 0.82 nmol/mg of protein
  Nitrites in liver, Control + Compound: 0.245 ± 0.010 nmol/mg of protein
[2]; [9]
  Nitrites in blood plasma, Control + Morphine + compound: 15.86 ± 1.20 mkmol/ml
  Nitrites in brain, Cortex of cerebrum, Control + Morphine + compound: 5.12 ± 0.18 nmol/mg of protein
  Nitrites in brain, Hypothalamus, Control + Morphine + compound: 6.72 ± 0.94 nmol/mg of protein
  Nitrites in brain, Mesencephalon, Control + Morphine + compound: 5.76 ± 0.94 nmol/mg of protein
  Nitrites in liver, Control + Morphine + compound: 0.294 ± 0.02 nmol/mg of protein
[3]; [8]
  ALT, Ci, mE/l, Control + compound: 114.5 ± 1.13 mE/l
  AST, Ci, mE/l, Control + compound: 176.18 ± 3.26 mE/l
  γ-GTP, Ci, mE/l, Control + compound: 8.27 ± 2.12 mE/l
[3]; [9]
  ALT, Ci, mE/l, control + Morphine + Compound: 122.44 ± 2.01 mE/l
  AST, Ci, mE/l, control + Morphine + Compound: 198.34 ± 9.32 mE/l
  γ-GTP, Ci, mE/l, control + Morphine + Compound: 12.52 ± 2.02 mE/l
Thymus [4]
  Nitrites, thymus Supernatant, Administration of morphine and compound: 0.419 ± 0.02 nmol/mg of protein
  Thymus mass, Administration of morphine and compound: 207 ± 14 mg
[5]; 10^−3 M
  MA - fall of optical density of plasma, % to the standard: 50.0 ± 1.9 %
[5]; 10^−4 M
  MA - fall of optical density of plasma, % to the standard: 53.3 ± 2.2 %
[5]; 10^−5 M
  MA - fall of optical density of plasma, % to the standard: 47.4 ± 2.0 %
[5]; 10^−6 M
  MA - drop of optical density, % compared to control: 51.2 ± 3.2%
[5]; 10^−7 M
  MA - drop of optical density, % compared to control: 50.7 ± 3.2%
[6]; [8]
  Activity of NOC, Hypothalamus, Control + Compound: 5.93 ± 0.27 pmol/min/mg of protein
  Activity of NOC, Mesencephalon, Control + Compound: 2.84 ± 0.31 pmol/min/mg of protein
[6]; [9]
  Activity of NOC, Hypothalamus, Control + Morphine + compound: 5.24 ± 0.24 pmol/min/mg of protein
  Activity of NOC, Mesencephalon, Control + Morphine + compound: 1.99 ± 0.31 pmol/min/mg of protein
Thymus [7]
  Nitrites, thymus Supernatant, Administration of compounds: 0.424 ± 0.04 nmol/mg of protein
  Thymus mass, Administration of compounds: 242 ± 17 mg

## Cc1cc2nc3c(=O)[nH]c(=O)nc-3n(C[C@H](O)[C@H](O)[C@H](O)COP(=O)(O)OP(=O)(O)OC[C@H]3O[C@@H](n4cnc5c(N)ncnc54)[C@H](O)[C@@H]3O)c2cc1C [FAD^+]
[1]
  E1/2 of electrochemical reduction of coenzyme: −0.05 V
